Experimental data taken from the NIST ThermoML archive (doi:10.1016/j.tca.2015.08.011).

Legend:
[1] = 101.33 kPa, Crystal, Laser pulse heating
[2] = molar heat capacity at constant pressure; settings: 101.33 kPa, Crystal, Small sample (50 mg) DSC

[Ce+4].[O-2].[O-2] [ceric oxide]
Settings	molar heat capacity at constant pressure, [2] [J/K/mol]	thermal conductivity, [1] [W/m/K]
298.15 K	–	15.15
323.15 K	57.9	–
373.15 K	62.1	–
423.15 K	65.42	–
473.15 K	67.99	–
523.15 K	69.93	–
573.15 K	71.34	–
623.15 K	72.32	–
673.15 K	72.96	–
723.15 K	73.34	–
773.15 K	73.53	6.05
823.15 K	73.6	–
873.15 K	73.58	–
923.15 K	73.53	–
973.15 K	73.48	–
1023.1 K	73.44	–
1073.2 K	73.46	–
1123.2 K	73.51	–
1173.2 K	73.61	–
1273.2 K	–	2.7
